From ChEMBL document CHEMBL1136210, “Bone-targeted pyrido[2,3-d]pyrimidin-7-ones: potent inhibitors of Src tyrosine kinase as novel antiresorptive agents” (Bioorg Med Chem Lett, 2003)

Assays:
[1] = target: Proto-oncogene tyrosine-protein kinase Src (Homo sapiens, UniProt P12931); assay: Inhibition of Src protein tyrosine kinase
[2] = Compound was tested for toxicity by the presence of tartrate resistant acid phosphatase (TRAP)-positive cell; Normal; type: functional
Oryctolagus cuniculus = species: Oryctolagus cuniculus; assay: Inhibition of rabbit-osteoclast mediated resorption of dentine slices

Proto-oncogene tyrosine-protein kinase Src, sequence (P12931 2-536 limits assumed): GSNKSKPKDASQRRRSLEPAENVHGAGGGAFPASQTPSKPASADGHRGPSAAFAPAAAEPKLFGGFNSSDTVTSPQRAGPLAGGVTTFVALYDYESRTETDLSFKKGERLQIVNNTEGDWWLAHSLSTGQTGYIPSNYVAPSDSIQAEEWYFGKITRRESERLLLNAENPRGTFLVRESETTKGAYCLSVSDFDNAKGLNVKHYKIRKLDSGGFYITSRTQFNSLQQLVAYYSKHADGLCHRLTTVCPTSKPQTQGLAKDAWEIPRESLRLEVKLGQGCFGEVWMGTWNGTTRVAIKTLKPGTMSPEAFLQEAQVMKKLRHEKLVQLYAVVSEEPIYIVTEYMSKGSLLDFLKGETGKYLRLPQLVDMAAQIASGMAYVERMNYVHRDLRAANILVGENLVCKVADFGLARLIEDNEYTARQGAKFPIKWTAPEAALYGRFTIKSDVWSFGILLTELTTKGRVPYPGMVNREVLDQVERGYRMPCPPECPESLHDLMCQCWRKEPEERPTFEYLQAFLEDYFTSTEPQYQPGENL

In the case of Cn1c(=O)c(-c2c(Cl)cccc2Cl)cc2cnc(Nc3ccccc3)nc21, the IC50 [1] is reported as 16 nM.
With Cn1c(=O)c(-c2c(Cl)cccc2Cl)cc2cnc(Nc3cccc(P(=O)(O)CP(=O)(O)O)c3)nc21 the TRAP staining [2] was “Not toxic” and the IC50 (Oryctolagus cuniculus) was 4000 nM.
For CN(C)CCCn1c(=O)c(-c2c(Cl)cccc2Cl)cc2cnc(Nc3ccc(P(=O)(O)CP(=O)(O)O)cc3)nc21, the TRAP staining [2] was “Not toxic” and the IC50 (Oryctolagus cuniculus) was 800 nM.
With Cn1c(=O)c(-c2c(Cl)cccc2Cl)cc2cnc(Nc3ccc(P(=O)(O)CP(=O)(O)O)cc3)nc21 the TRAP staining [2] was “Not toxic” and the IC50 (Oryctolagus cuniculus) was 3000 nM.
